# Where two headings read alike, the source gives them in different places.
# What was measured:
# Yersinia enterocolitica = assay: MIC by agar dilution (NCCLS M7-A4), 288 enteropathogenic isolates, gemifloxacin and 15 other antimicrobials; assay type: cell-based; conditions: for MIC: Yersinia enterocolitica N= 22
# Hafnia alvei = assay: as above; assay type: cell-based; conditions: for MIC: Hafnia alvei N= 32
# Aeromonas spp. = assay: as above; assay type: cell-based
# Campylobacter jejuni = assay: as above
# Salmonella spp. = assay: as above; assay type: cell-based; conditions: for MIC: Salmonella
# Shigella spp. = assay: as above; assay type: cell-based
# Description: [A. hydrophila (12), and A. sobria (4)], and 91 Campylobacter jejuni. […] The strains were stored in skimmed-milk at -80 °C until studied.
# The plates were incubated aerobically at 35 °C for 24 h, except for Campylobacter jejuni, where a microaerophilic atmosphere was obtained by using Campy Pack (Becton Dickinson, Cockeysville, MD, USA), and incubation was for 48 h. All organisms were tested with an inoculum of ≅ 10^4 cfu/spot. MICs were defined as the lower antibiotic concentration with no visible growth.
# Streptococcus pneumoniae = assay: MIC by agar dilution (NCCLS), 411 isolates Buenos Aires 1998-99; assay type: cell-based; conditions: S. pneumoniae
# Enterococcus faecalis = assay: MIC by agar macrodilution (NCCLS), 373 Gram positive isolates, Athens 1998; assay type: cell-based; conditions: for MIC50: read-out: MIC50
# [1] = 24 h, read-out: MIC (mg/L) Range
# [2] = read-out: MIC (mg/L) 50%, Aeromonas spp. N= 16
# [3] = read-out: MIC (mg/L) 90%, Aeromonas spp. N= 16
# [4] = Campylobacter jejuni, read-out: MIC (mg/L) 50%
# [5] = Campylobacter jejuni, read-out: MIC (mg/L) 90%
# [6] = read-out: MIC (mg/L) 50%, Salmonella spp. N= 106
# [7] = read-out: MIC (mg/L) 90%, Salmonella spp. N= 106
# [8] = number of isolates at MIC […], n = 81
# [9] = number of isolates with MIC […], 14 isolates
molecule,measurement,setting,value
"C[C@H]1c2cccc(O)c2C(=O)C2=C(O)[C@]3(O)C(=O)C(C(N)=O)=C(O)[C@@H](N(C)C)[C@@H]3[C@@H](O)[C@@H]21 [Doxycycline, doxycycline]",MIC,Yersinia enterocolitica; [1],0.25 to 8 mg/L
same,Rates of non-susceptible microorganisms,Yersinia enterocolitica; Yersinia enterocolitica,5%
same,MIC,Yersinia enterocolitica; read-out: MIC (mg/L) 50%,1 mg/L
same,MIC,Yersinia enterocolitica; read-out: MIC (mg/L) 90%,2 mg/L
same,MIC,Hafnia alvei; [1],1 to 16 mg/L
same,Rates of non-susceptible microorganisms,Hafnia alvei; Hafnia alvei,22%
same,MIC,Hafnia alvei; read-out: MIC (mg/L) 50%,2 mg/L
same,MIC,Hafnia alvei; read-out: MIC (mg/L) 90%,8 mg/L
same,MIC (mg/L) Range,Aeromonas spp.; Aeromonas spp. N= 16,0.25 to 4 mg/L
same,MIC,Aeromonas spp.; [2],0.5 mg/L
same,MIC,Aeromonas spp.; [3],2 mg/L
same,Rates of non-susceptible microorganisms,Campylobacter jejuni; Campylobacter jejuni,40%
same,MIC (mg/L) Range,Campylobacter jejuni; Campylobacter jejuni N= 91,0.06 to 64 mg/L
same,MIC,Campylobacter jejuni; [4],16 mg/L
same,MIC,Campylobacter jejuni; [5],32 mg/L
same,Rates of non-susceptible microorganisms,Salmonella spp.; Salmonella spp.,22%
same,MIC (mg/L) Range,Salmonella spp.; Salmonella spp. N= 106,1 to 128 mg/L
same,MIC,Salmonella spp.; [6],2 mg/L
same,MIC,Salmonella spp.; [7],16 mg/L
same,Rates of non-susceptible microorganisms,Shigella spp.; Shigella spp.,43%
same,MIC,"Shigella spp.; Shigella, 24 h, read-out: MIC (mg/L) Range",0.5 to 32 mg/L
same,MIC,"Shigella spp.; Shigella, read-out: MIC (mg/L) 50%",16 mg/L
same,MIC,"Shigella spp.; Shigella, read-out: MIC (mg/L) 90%",32 mg/L
co-trimoxazole,isolates being resistant,Campylobacter jejuni; C. jejuni,4%
same,Rates of non-susceptible microorganisms,Salmonella spp.; Salmonella spp.,4%
same,isolates being resistant,Salmonella spp.; Salmonella spp.,4%
same,MIC90,Streptococcus pneumoniae; Penicillin intermediate (n = 17),8 µg/mL
same,MIC90,Streptococcus pneumoniae; Penicillin resistant (n = 4),>16 µg/mL
same,MIC90,Streptococcus pneumoniae; Penicillin susceptible (n = 69),8 µg/mL
CC[C@H]1OC(=O)[C@H](C)[C@@H](O[C@H]2C[C@@](C)(OC)[C@@H](O)[C@H](C)O2)[C@H](C)[C@@H](O[C@@H]2O[C@H](C)C[C@H](N(C)C)[C@H]2O)[C@](C)(O)C[C@@H](C)C(=O)[C@H](C)[C@@H](O)[C@]1(C)O [erythromycin],MIC50,"Enterococcus faecalis; Enterococcus faecalis, continuation of the preceding table (title not shown), 14 isolates",≥ 32 µg/mL
same,MIC50,"Enterococcus faecalis; Enterococcus faecalis, n = 81 isolates",8 µg/mL
same,MIC90,"Enterococcus faecalis; Enterococcus faecalis, n = 81 isolates, read-out: MIC90",≥ 32 µg/mL
same,MIC90,"Enterococcus faecalis; continuation of the preceding table (title not shown), 14 isolates",≥32 µg/mL
same,MIC distribution (µg/ml) 0.03,"Enterococcus faecalis; number of isolates at MIC 0.03 µg/ml, n = 81",0
same,MIC distribution (µg/ml) 0.06,"Enterococcus faecalis; number of isolates at MIC 0.06 µg/ml, n = 81",0
same,MIC distribution (µg/ml) 0.5,"Enterococcus faecalis; number of isolates at MIC 0.5 µg/ml, n = 81",1
same,MIC distribution (µg/ml) 1,"Enterococcus faecalis; number of isolates at MIC 1 µg/ml, n = 81",2
same,MIC distribution (µg/ml) 2,"Enterococcus faecalis; number of isolates at MIC 2 µg/ml, n = 81",12
same,MIC distribution (µg/ml) 4,"Enterococcus faecalis; number of isolates at MIC 4 µg/ml, n = 81",16
same,MIC distribution (µg/ml) 8,"Enterococcus faecalis; number of isolates at MIC 8 µg/ml, n = 81",4
same,MIC distribution (µg/ml) 16,"Enterococcus faecalis; number of isolates at MIC 16 µg/ml, n = 81",1
same,MIC distribution (µg/ml) 0.125,Enterococcus faecalis; [8],1
same,MIC distribution (µg/ml) 0.25,Enterococcus faecalis; [8],1
same,MIC distribution (µg/ml) ≤0.015,"Enterococcus faecalis; number of isolates at MIC ≤[…], n = 81",0
same,MIC distribution (µg/ml) ≥32,"Enterococcus faecalis; number of isolates at MIC ≥32 µg/ml, n = 81",39
same,MIC distribution (µg/ml) 0.03,"Enterococcus faecalis; number of isolates with MIC 0.03 µg/ml, 14 isolates",0
same,MIC distribution (µg/ml) 0.06,"Enterococcus faecalis; number of isolates with MIC 0.06 µg/ml, 14 isolates",0
same,MIC distribution (µg/ml) 0.5,"Enterococcus faecalis; number of isolates with MIC 0.5 µg/ml, 14 isolates",0
same,MIC distribution (µg/ml) 1,"Enterococcus faecalis; number of isolates with MIC 1 µg/ml, 14 isolates",0
same,MIC distribution (µg/ml) 2,"Enterococcus faecalis; number of isolates with MIC 2 µg/ml, 14 isolates",2
same,MIC distribution (µg/ml) 4,"Enterococcus faecalis; number of isolates with MIC 4 µg/ml, 14 isolates",2
same,MIC distribution (µg/ml) 8,"Enterococcus faecalis; number of isolates with MIC 8 µg/ml, 14 isolates",1
same,MIC distribution (µg/ml) 16,"Enterococcus faecalis; number of isolates with MIC […] µg/ml, 14 isolates",0
same,MIC distribution (µg/ml) 0.125,Enterococcus faecalis; [9],0
same,MIC distribution (µg/ml) 0.25,Enterococcus faecalis; [9],0
same,MIC distribution (µg/ml) ≤0.015,"Enterococcus faecalis; number of isolates with MIC ≤[…], 14 isolates",0
same,MIC distribution (µg/ml) ≥32,"Enterococcus faecalis; number of isolates with MIC ≥[…] µg/ml, 14 isolates",9
same,isolates inhibited by a concentration ≤0.5 mg/l,Campylobacter jejuni; C. jejuni,77%
same,concentration inhibiting all the other isolates,Campylobacter jejuni; C. jejuni isolates other than the highly resistant strain,≤ 4 mg/L
same,MIC,Campylobacter jejuni; Campylobacter jejuni,128 mg/L
same,MIC,Campylobacter jejuni; [4],0.5 mg/L
same,MIC,Campylobacter jejuni; [5],1 mg/L
CC1(C)S[C@@H]2[C@H](NC(=O)[C@H](N)c3ccccc3)C(=O)N2[C@H]1C(=O)O [ampicillin],MIC,Yersinia enterocolitica; [1],32 to 64 mg/L
same,susceptibility of isolates,Yersinia enterocolitica; Yersinia enterocolitica,non susceptible
same,MIC,Yersinia enterocolitica; read-out: MIC (mg/L) 50%,32 mg/L
same,MIC,Yersinia enterocolitica; read-out: MIC (mg/L) 90%,64 mg/L
same,MIC,Hafnia alvei; [1],2 to 64 mg/L
same,MIC,Hafnia alvei; read-out: MIC (mg/L) 50%,16 mg/L
same,MIC,Hafnia alvei; read-out: MIC (mg/L) 90%,64 mg/L
same,susceptibility of isolates,Aeromonas spp.; Aeromonas spp.,non susceptible
same,MIC,Aeromonas spp.; [2],> 128 mg/L
same,MIC,Aeromonas spp.; [3],> 128 mg/L
same,MIC,Campylobacter jejuni; [4],8 mg/L
same,MIC,Campylobacter jejuni; [5],32 mg/L
same,Rates of non-susceptible microorganisms,Salmonella spp.; Salmonella spp.,23%
same,susceptible isolates,"Salmonella spp.; Salmonella spp., breakpoints",77%
same,MIC,Salmonella spp.; [6],4 mg/L
same,MIC,Salmonella spp.; [7],> 128 mg/L
same,susceptible isolates,"Shigella spp.; Shigella spp., breakpoints",43%
same,MIC,"Shigella spp.; read-out: MIC (mg/L) 50%, Shigella spp. N= 21",64 mg/L
same,MIC,"Shigella spp.; read-out: MIC (mg/L) 90%, Shigella spp. N= 21",> 128 mg/L

# — patent EP1561465A2, “Methods of use of fluoroquinolone compounds against bacteria” (LG Life Sciences, Ltd., priority 1999, dated 2001)
